What was measured:
Assay in all cases: radiometric filter-binding kinase assay, Kinase HotSpot
Details in all cases: compound 0.5 µM; ATP 10 µM
EPHA8 (human) = EPHA8 (human) (UniProt P29322)
FER (human) = FER (human) (UniProt P16591)
NUAK2 (human) = NUAK2 (human) (UniProt Q9H093)
HCK (human) = HCK (human) (UniProt P08631)
PAK7 (human) = PAK7 (human) (UniProt Q9P286)
MATK (human) = MATK (human) (UniProt P42679)
MARK3 (human) = MARK3 (human) (UniProt P27448)
INSR (human) = INSR (human) (UniProt P06213)
MAP2K2 (human) = MAP2K2 (human) (UniProt P36507)
CSK (human) = CSK (human) (UniProt P41240)
ABL2 (human) = ABL2 (human) (UniProt P42684)
STK11 (human) = STK11 (human) (UniProt Q15831)
EPHB1 (human) = EPHB1 (human) (UniProt P54762)
CDK9 CCNK (human) = CDK9 CCNK (human) (UniProt O75909+P50750)
IKBKB (human) = IKBKB (human) (UniProt O14920)
NEK11 (human) = NEK11 (human) (UniProt Q8NG66)
MINK1 (human) = MINK1 (human) (UniProt Q8N4C8)
PRKCD (human) = PRKCD (human) (UniProt Q05655)
FGR (human) = FGR (human) (UniProt P09769)
MYLK2 (human) = MYLK2 (human) (UniProt Q9H1R3)
MARK4 (human) = MARK4 (human) (UniProt Q96L34)
CSNK1D (human) = CSNK1D (human) (UniProt P48730)
CSNK1D (human), sequence (P48730 whole entry, looked up): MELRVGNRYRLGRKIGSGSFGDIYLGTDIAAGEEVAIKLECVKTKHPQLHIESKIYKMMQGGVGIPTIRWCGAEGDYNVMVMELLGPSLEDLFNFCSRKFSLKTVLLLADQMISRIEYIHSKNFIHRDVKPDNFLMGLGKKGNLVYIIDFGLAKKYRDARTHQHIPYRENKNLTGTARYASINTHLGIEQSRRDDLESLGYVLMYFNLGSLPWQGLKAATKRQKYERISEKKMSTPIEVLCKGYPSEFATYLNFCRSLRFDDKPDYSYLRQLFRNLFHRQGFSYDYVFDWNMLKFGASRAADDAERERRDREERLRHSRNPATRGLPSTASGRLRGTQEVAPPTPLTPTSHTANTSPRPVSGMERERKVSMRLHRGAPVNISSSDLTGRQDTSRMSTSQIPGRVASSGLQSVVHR

ACVR1 (human) = ACVR1 (human) (UniProt Q04771)
ACVR1 (human), sequence (Q04771 whole entry, looked up): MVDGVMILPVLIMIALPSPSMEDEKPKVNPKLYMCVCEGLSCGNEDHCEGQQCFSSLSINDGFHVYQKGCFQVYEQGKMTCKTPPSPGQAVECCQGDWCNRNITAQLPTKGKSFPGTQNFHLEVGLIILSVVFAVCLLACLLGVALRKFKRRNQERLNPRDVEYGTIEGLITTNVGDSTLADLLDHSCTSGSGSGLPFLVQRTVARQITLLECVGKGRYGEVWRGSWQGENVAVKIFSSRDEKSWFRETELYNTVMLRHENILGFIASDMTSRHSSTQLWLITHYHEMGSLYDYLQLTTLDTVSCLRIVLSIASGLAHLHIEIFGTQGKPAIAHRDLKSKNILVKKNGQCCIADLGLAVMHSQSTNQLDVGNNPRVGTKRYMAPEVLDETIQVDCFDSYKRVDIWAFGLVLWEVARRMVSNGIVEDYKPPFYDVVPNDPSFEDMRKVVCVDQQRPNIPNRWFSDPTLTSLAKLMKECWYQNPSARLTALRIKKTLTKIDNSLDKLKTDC

RPS6KB2 (human) = RPS6KB2 (human) (UniProt Q9UBS0)
MAP3K10 (human) = MAP3K10 (human) (UniProt Q02779)
PRKCG (human) = PRKCG (human) (UniProt P05129)
HIPK2 (human) = HIPK2 (human) (UniProt Q9H2X6)
HIPK2 (human), sequence (Q9H2X6 whole entry, looked up): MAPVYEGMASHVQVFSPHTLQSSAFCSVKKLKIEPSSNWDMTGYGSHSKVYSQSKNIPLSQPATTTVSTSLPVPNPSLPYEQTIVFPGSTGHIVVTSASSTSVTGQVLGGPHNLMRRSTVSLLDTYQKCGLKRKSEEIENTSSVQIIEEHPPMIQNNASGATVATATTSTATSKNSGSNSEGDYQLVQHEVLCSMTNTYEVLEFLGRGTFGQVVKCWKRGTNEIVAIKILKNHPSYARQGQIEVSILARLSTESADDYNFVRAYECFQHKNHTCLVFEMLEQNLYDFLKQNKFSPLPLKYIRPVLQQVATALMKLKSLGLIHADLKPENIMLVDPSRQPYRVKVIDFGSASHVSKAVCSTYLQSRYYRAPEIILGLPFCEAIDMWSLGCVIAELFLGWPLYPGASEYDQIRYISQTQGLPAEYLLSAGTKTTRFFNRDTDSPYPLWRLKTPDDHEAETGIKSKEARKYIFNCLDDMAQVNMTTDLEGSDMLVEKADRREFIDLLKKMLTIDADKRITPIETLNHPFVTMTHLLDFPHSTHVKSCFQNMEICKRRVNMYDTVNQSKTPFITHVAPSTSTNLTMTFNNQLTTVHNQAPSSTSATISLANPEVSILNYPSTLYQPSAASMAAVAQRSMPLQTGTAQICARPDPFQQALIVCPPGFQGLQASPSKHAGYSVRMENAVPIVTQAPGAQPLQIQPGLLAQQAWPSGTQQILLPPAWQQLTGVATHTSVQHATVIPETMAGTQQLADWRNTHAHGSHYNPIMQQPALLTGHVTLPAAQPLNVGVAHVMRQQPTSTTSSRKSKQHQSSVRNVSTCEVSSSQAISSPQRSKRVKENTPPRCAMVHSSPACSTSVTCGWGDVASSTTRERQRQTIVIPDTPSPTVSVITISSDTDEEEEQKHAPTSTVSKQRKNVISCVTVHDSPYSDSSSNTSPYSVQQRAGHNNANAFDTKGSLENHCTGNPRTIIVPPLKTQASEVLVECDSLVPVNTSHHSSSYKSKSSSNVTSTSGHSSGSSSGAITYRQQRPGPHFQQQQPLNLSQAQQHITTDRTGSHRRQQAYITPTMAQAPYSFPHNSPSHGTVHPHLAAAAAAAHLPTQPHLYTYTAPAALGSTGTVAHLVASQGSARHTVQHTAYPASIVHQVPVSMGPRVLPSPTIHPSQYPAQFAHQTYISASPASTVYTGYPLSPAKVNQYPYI

DYRK2 (human) = DYRK2 (human) (UniProt Q92630)
ULK1 (human) = ULK1 (human) (UniProt O75385)
BRSK2 (human) = BRSK2 (human) (UniProt Q8IWQ3)
MERTK (human) = MERTK (human) (UniProt Q12866)
MERTK (human), sequence (Q12866 whole entry, looked up): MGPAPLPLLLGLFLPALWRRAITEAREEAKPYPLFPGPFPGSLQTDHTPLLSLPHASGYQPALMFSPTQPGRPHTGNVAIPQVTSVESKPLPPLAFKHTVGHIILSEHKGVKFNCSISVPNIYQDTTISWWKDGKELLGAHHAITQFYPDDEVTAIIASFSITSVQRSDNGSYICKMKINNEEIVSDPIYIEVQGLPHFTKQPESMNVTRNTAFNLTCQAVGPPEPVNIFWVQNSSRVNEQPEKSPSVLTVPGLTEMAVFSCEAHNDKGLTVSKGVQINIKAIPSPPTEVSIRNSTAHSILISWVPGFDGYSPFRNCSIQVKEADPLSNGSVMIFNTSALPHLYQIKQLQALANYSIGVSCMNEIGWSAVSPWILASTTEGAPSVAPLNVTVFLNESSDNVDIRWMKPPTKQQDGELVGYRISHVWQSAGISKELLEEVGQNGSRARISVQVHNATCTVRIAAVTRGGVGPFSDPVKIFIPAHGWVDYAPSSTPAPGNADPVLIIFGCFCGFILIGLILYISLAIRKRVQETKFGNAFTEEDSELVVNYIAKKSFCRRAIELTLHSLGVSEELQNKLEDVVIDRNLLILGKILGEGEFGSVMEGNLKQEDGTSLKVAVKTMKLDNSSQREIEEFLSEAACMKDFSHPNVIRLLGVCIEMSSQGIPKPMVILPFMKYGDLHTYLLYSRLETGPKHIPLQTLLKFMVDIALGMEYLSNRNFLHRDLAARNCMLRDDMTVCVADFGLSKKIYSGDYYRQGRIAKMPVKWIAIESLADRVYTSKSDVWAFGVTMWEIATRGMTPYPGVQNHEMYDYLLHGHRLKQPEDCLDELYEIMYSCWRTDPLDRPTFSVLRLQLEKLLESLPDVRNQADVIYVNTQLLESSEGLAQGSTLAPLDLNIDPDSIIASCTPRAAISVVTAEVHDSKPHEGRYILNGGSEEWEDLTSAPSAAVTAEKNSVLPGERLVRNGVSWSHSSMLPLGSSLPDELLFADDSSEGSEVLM

MAPK13 (human) = MAPK13 (human) (UniProt O15264)
CDC42BPA (human) = CDC42BPA (human) (UniProt Q5VT25)
PRKCH (human) = PRKCH (human) (UniProt P24723)
TAOK2 (human) = TAOK2 (human) (UniProt Q9UL54)
DSTYK (human) = DSTYK (human) (UniProt Q6XUX3)
TGFBR1 (human) = TGFBR1 (human) (UniProt P36897)
PIM3 (human) = PIM3 (human) (UniProt Q86V86)
CDK5 CDK5R1 p35 (human) = CDK5 CDK5R1 p35 (human) (UniProt Q00535+Q15078)
TYRO3 (human) = TYRO3 (human) (UniProt Q06418)
EPHB4 (human) = EPHB4 (human) (UniProt P54760)

NUAK2 (human), sequence (Q9H093 whole entry, looked up): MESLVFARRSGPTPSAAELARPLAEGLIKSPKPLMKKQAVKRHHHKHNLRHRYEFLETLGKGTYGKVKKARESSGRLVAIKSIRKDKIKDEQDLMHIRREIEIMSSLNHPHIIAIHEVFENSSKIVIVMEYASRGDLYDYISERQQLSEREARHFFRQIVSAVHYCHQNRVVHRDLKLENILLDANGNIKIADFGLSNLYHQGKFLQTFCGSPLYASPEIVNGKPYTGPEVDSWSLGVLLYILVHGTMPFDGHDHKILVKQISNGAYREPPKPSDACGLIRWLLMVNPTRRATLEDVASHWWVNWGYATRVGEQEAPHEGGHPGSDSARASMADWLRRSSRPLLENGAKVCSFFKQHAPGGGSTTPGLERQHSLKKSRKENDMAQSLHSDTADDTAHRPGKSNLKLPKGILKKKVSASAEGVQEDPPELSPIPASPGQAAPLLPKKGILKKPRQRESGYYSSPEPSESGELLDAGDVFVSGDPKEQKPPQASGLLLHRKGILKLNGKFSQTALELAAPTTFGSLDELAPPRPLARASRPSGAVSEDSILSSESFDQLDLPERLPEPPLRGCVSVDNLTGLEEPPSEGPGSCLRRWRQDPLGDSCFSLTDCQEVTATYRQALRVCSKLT

Q: For `c1ccc(-c2n[nH]c3c2oc2ccccc23)cc1`, which residual activity (EPHA8 (human)) is on record?
A: 102%

Q: And the residual activity (FER (human))?
A: 103%

Q: And the residual activity (NUAK2 (human))?
A: 95.2%

Q: And the residual activity (HCK (human))?
A: 111%

Q: What about the residual activity (PAK7 (human)) of the same compound?
A: 70.9%

Q: What about the residual activity (MATK (human)) of the same compound?
A: 94%

Q: And the residual activity (MARK3 (human))?
A: 96.5%

Q: What about the residual activity (INSR (human)) of the same compound?
A: 94.4%

Q: And the residual activity (MAP2K2 (human))?
A: 85.8%

Q: What about the residual activity (CSK (human)) of the same compound?
A: 92.6%

Q: And the residual activity (ABL2 (human))?
A: 86.7%

Q: And the residual activity (STK11 (human))?
A: 107%

Q: What about the residual activity (EPHB1 (human)) of the same compound?
A: 103%

Q: And the residual activity (CDK9 CCNK (human))?
A: 86.2%

Q: What about the residual activity (IKBKB (human)) of the same compound?
A: 92.2%

Q: What about the residual activity (NEK11 (human)) of the same compound?
A: 103%

Q: And the residual activity (MINK1 (human))?
A: 81.4%

Q: What about the residual activity (PRKCD (human)) of the same compound?
A: 96.7%

Q: What about the residual activity (FGR (human)) of the same compound?
A: 116%

Q: What about the residual activity (MYLK2 (human)) of the same compound?
A: 66.6%

Q: And the residual activity (MARK4 (human))?
A: 98.2%

Q: And the residual activity (CSNK1D (human))?
A: 93.1%

Q: And the residual activity (ACVR1 (human))?
A: 99.4%

Q: What about the residual activity (RPS6KB2 (human)) of the same compound?
A: 99.8%

Q: And the residual activity (MAP3K10 (human))?
A: 91.4%

Q: What about the residual activity (PRKCG (human)) of the same compound?
A: 99.9%

Q: What about the residual activity (HIPK2 (human)) of the same compound?
A: 99.6%

Q: And the residual activity (DYRK2 (human))?
A: 95.4%

Q: And the residual activity (ULK1 (human))?
A: 124%

Q: What about the residual activity (BRSK2 (human)) of the same compound?
A: 101%

Q: And the residual activity (MERTK (human))?
A: 80%

Q: And the residual activity (MAPK13 (human))?
A: 109%

Q: What about the residual activity (CDC42BPA (human)) of the same compound?
A: 87.4%

Q: What about the residual activity (PRKCH (human)) of the same compound?
A: 80.9%

Q: What about the residual activity (TAOK2 (human)) of the same compound?
A: 80.7%

Q: And the residual activity (DSTYK (human))?
A: 82.9%

Q: And the residual activity (TGFBR1 (human))?
A: 94.9%

Q: What about the residual activity (PIM3 (human)) of the same compound?
A: 117%

Q: And the residual activity (CDK5 CDK5R1 p35 (human))?
A: 85.8%

Q: What about the residual activity (TYRO3 (human)) of the same compound?
A: 87.6%

Q: What about the residual activity (EPHB4 (human)) of the same compound?
A: 112%

Q: Which results are given for `Cc1ccc(NC2=CC(=O)c3sc(C)nc3C2=O)cc1`?
A: residual activity (EPHA8 (human)): 94.1%; residual activity (FER (human)): 83.9%; residual activity (NUAK2 (human)): 105%; residual activity (HCK (human)): 94.4%; residual activity (PAK7 (human)): 77.4%; residual activity (MATK (human)): 88.3%; residual activity (MARK3 (human)): 95.1%; residual activity (INSR (human)): 92.6%; residual activity (MAP2K2 (human)): 98.8%; residual activity (CSK (human)): 102%; residual activity (ABL2 (human)): 98.3%; residual activity (STK11 (human)): 85.6%; residual activity (CDK9 CCNK (human)): 84.4%; residual activity (IKBKB (human)): 97.3%; residual activity (NEK11 (human)): 98.3%; residual activity (MINK1 (human)): 101%; residual activity (PRKCD (human)): 104%; residual activity (FGR (human)): 85.3%; residual activity (MYLK2 (human)): 92.8%; residual activity (MARK4 (human)): 102%; residual activity (CSNK1D (human)): 101%; residual activity (ACVR1 (human)): 99.1%; residual activity (RPS6KB2 (human)): 95.2%; residual activity (MAP3K10 (human)): 94.6%; residual activity (PRKCG (human)): 77%; residual activity (HIPK2 (human)): 98.5%; residual activity (DYRK2 (human)): 109%; residual activity (ULK1 (human)): 114%; residual activity (BRSK2 (human)): 93.1%; residual activity (MERTK (human)): 80.5%; residual activity (MAPK13 (human)): 105%; residual activity (CDC42BPA (human)): 77.6%; residual activity (PRKCH (human)): 89.4%; residual activity (TAOK2 (human)): 96.6%; residual activity (DSTYK (human)): 76.1%; residual activity (TGFBR1 (human)): 94.8%; residual activity (PIM3 (human)): 108%; residual activity (CDK5 CDK5R1 p35 (human)): 86.3%; residual activity (TYRO3 (human)): 95.3%; residual activity (EPHB4 (human)): 89.7%

Q: `COc1ccc2c(c[n+](C)c3c4cc5c(cc4ccc23)OCO5)c1OC` was tested. Which residual activity (EPHA8 (human)) did it give?
A: 100%

Q: What about the residual activity (FER (human)) of the same compound?
A: 89.8%

Q: What about the residual activity (NUAK2 (human)) of the same compound?
A: 98.9%

Q: And the residual activity (PAK7 (human))?
A: 77.4%

Q: What about the residual activity (MATK (human)) of the same compound?
A: 89.5%

Q: What about the residual activity (MARK3 (human)) of the same compound?
A: 98.7%

Q: What about the residual activity (INSR (human)) of the same compound?
A: 94.9%

Q: What about the residual activity (MAP2K2 (human)) of the same compound?
A: 95.6%

Q: And the residual activity (CSK (human))?
A: 106%

Q: And the residual activity (ABL2 (human))?
A: 96.7%

Q: What about the residual activity (STK11 (human)) of the same compound?
A: 82.1%

Q: What about the residual activity (EPHB1 (human)) of the same compound?
A: 90.4%

Q: And the residual activity (CDK9 CCNK (human))?
A: 95.6%

Q: What about the residual activity (IKBKB (human)) of the same compound?
A: 103%

Q: And the residual activity (NEK11 (human))?
A: 106%

Q: And the residual activity (MINK1 (human))?
A: 97.5%

Q: And the residual activity (PRKCD (human))?
A: 96.8%

Q: And the residual activity (FGR (human))?
A: 91.3%

Q: What about the residual activity (MYLK2 (human)) of the same compound?
A: 95.3%

Q: What about the residual activity (MARK4 (human)) of the same compound?
A: 99.3%

Q: And the residual activity (CSNK1D (human))?
A: 92.9%

Q: And the residual activity (ACVR1 (human))?
A: 93.2%

Q: What about the residual activity (RPS6KB2 (human)) of the same compound?
A: 99.6%

Q: And the residual activity (MAP3K10 (human))?
A: 91.7%

Q: What about the residual activity (PRKCG (human)) of the same compound?
A: 87.2%

Q: And the residual activity (HIPK2 (human))?
A: 92.6%

Q: And the residual activity (DYRK2 (human))?
A: 94.5%

Q: What about the residual activity (ULK1 (human)) of the same compound?
A: 109%

Q: And the residual activity (BRSK2 (human))?
A: 97%

Q: What about the residual activity (MERTK (human)) of the same compound?
A: 90.8%

Q: What about the residual activity (MAPK13 (human)) of the same compound?
A: 97.3%

Q: What about the residual activity (CDC42BPA (human)) of the same compound?
A: 84.8%

Q: And the residual activity (PRKCH (human))?
A: 101%

Q: What about the residual activity (TAOK2 (human)) of the same compound?
A: 95%

Q: What about the residual activity (DSTYK (human)) of the same compound?
A: 86.4%

Q: And the residual activity (TGFBR1 (human))?
A: 98.5%

Q: What about the residual activity (PIM3 (human)) of the same compound?
A: 99.6%

Q: What about the residual activity (CDK5 CDK5R1 p35 (human)) of the same compound?
A: 95.7%

Q: And the residual activity (TYRO3 (human))?
A: 95.7%

Q: What about the residual activity (EPHB4 (human)) of the same compound?
A: 91.7%
